# According to US11478471B2, “Methods and compositions for treating diabetes, metabolic syndrome and other conditions” (priority 2005, dated 2022):
# How the values were obtained:
# [1] = dog, in vivo, 40 mg/kg
# Procedure: As a control, a separate set of 2 male and 2 female dogs was treated with vehicle.
# P450 3A = settings: read-out: IC50, progesterone 6β hydroxylase (3A); Rotstein et al. 1992; cited from earlier work
# P450 4A = settings: read-out: IC50, lauric acid hydroxylase (4A); Rotstein et al. 1992; cited from earlier work
# [2] = tested on: mouse L5178Y lymphoma cells; experiment: Mouse lymphoma assay, thymidine kinase locus; settings: with and without S-9, up to toxic doses
smiles,measurement,setting,value
"CC(=O)N1CCN(c2ccc(OC[C@@H]3CO[C@@](Cn4ccnc4)(c4ccc(Cl)cc4Cl)O3)cc2)CC1 [DIO-902, 2S,4R cis-1-acetyl-4-[4-[[2-(2,4-dichlorophenyl)-2-(1H-imidazol-1-ylmethyl)-1,3-dioxolan-4-yl]methoxyl]phenyl]piperazine]",clinical signs,[1],vomiting
same,IC50,P450 3A,1.3 µM
same,IC50,P450 4A,> 100 µM
same,"genotoxicity, mouse lymphoma assay",[2],negative
